Data taken from US7939322B2, “Cells expressing pluripotency markers and expressing markers characteristic of the definitive endoderm” (Centocor Ortho Biotech Inc., priority 2008, dated 2011).

How the values were obtained:
EXPRES 01 cells = test: CXCR4 expression by FACS after DE differentiation; type: cell-based, human; details: passage 19, day 4; 100 nM GSK-3B inhibitor IX with 0.5% FBS, 20 ng/ml WNT-3a, 100 ng/ml activin-A (about 17% in earlier protocol without inhibitor)
Protocol: (§1) Adhered human embryonic stem cells were removed from culture plates by a five-minute incubation with TrypLE™ Express solution (Invitrogen, CA). Released cells were resuspended in human embryonic stem cell culture medium and recovered by centrifugation, followed by washing and resuspending the cells in a staining buffer consisting of 2% BSA, 0.05% sodium azide in PBS (Sigma, Mo.). As appropriate, the cells were Fc-receptor blocked for 15 minutes using a 0.1% γ-globulin (Sigma) solution. […] Controls included appropriate isotype matched antibodies, unstained cells, and cells stained only with secondary conjugated antibody. All incubations with antibodies were performed for 30 mins at 4° C., after which the cells were washed with the staining buffer. Samples that were stained with unconjugated primary antibodies were incubated for an additional 30 mins at 4° C. with secondary conjugated PE or -APC labeled antibodies. See Table IB for a list of secondary antibodies used. Washed cells were pelleted and resuspended in the staining buffer, and the cell surface molecules were identified using a FACS Array (BD Biosciences) instrument, collecting at least 10,000 events. […]

EXPRES 02 cells = test: CXCR4 expression by FACS after DE differentiation; type: cell-based, human; details: passage 14, day 4; 100 nM GSK-3B inhibitor IX with 0.5% FBS, 20 ng/ml WNT-3a, 100 ng/ml activin-A (about 40% in earlier protocol without inhibitor)
Protocol: as §1

[1] = tested on: human embryonic stem cell line H9; test: Attachment of single human embryonic stem cells on uncoated TCPS with or without ROCK inhibitor; type: cell-based; details: 10 μm ROCK inhibitor, 24 hrs after seeding on TCPS, hypoxic (approximately 3% O2), compared to cultures without ROCK inhibitor
Protocol: Cells from the human embryonic stem cell line H9 at passage 35 lines were cultured under hypoxic conditions (approximately 3% O2) for at least three passages. The cells were cultured in MEF-CM supplemented with 8 ng/ml of bFGF and plated on MATRIGEL coated plates according to Example 1. At approximately 60% confluency, the cultures were exposed to TrypLE™ Express solution (Invitrogen, CA) for 5 mins. Released cells were resuspended in DM-F12+2% FBS medium, recovered by centrifugation, and counted using a hemocytometer. The released cells were seeded at 1000-10,000 cells/cm^2 on tissue culture polystyrene (TCPS) flasks and cultured in DM-F12+2% FBS+100 ng/ml activin-A+20 ng/ml WNT-3A+50 ng/ml of IGF-I+0.1 mM mercaptoethanol (Invitrogen, CA), non-essential amino acids (1×, NEAA from Invitrogen, CA)+/−10 μm ROCK inhibitor (Y-27632, Calbiochem, CA) under hypoxic conditions (approximately 3% O2) at 37° C. in a standard tissue culture incubator. The TCPS flaks were not coated with MATRIGEL or other extracellular matrix proteins. The media was changed daily. The first passage cells are referred to as P1. […] EXPRES cells derived using the ROCK inhibitor, Y27632 were designated as EXPRES 15.

[2] = tested on: Mouse Embryo Fibroblast (MEF); test: Cell cycle analysis of mitomycin treated feeder cells; type: cell-based
Protocol: MEF cells, derived from E13 to 13.5 mouse embryos, were purchased from Charles River. MEF cells were expanded in DMEM medium supplemented with 10% FBS (Hyclone), 2 mM glutamine, and 100 mM MEM nonessential amino acids. Sub-confluent MEF cell cultures were treated with 10 μg/ml mitomycin C (Sigma, St. Louis, Mo.) for 3 h to arrest cell division, then trypsinized and plated at 2×10^4/cm2 on 0.1% bovine gelatin-coated dishes. MEF cells from passage two through four were used as feeder layers. […] For cell cycle analysis, cells were stained with 7AAD, and analyzed on FACS Array.

EXPRES cells = test: Population doubling time of EXPRES cells in growth media; type: cell-based, human; details: H9-derived EXPRES cells on TCPS, hypoxic; IGF-I at 50 ng/ml added to growth media (DMEM-F12+2% FBS+100 ng/ml activin-A+20 ng/ml WNT-3A)
Protocol: Cells from the human embryonic stem cell lines H1 and H9 various passages (Passage 30-54) were cultured under hypoxic conditions (approximately 3% 02) for at least three passages. The cells were cultured in MEF-CM supplemented with 8 ng/ml of bFGF and plated on MATRIGEL coated plates according to Example 1. The cells were exposed to the DE protocol outlined in Example 5. At days 3-6, the cultures were exposed to TrypLE™ Express solution (Invitrogen, CA) for 5 mins. Released cells were resuspended in DMEM-F12+2% FBS medium, recovered by centrifugation, and counted using a hemocytometer. The released cells were seeded at 1000-10,000 cells/cm^2 on tissue culture polystyrene (TCPS) treated flasks and cultured in DMEM-F12+2% FBS+100 ng/ml activin-A+20 ng/ml WNT-3A under hypoxic conditions (approximately 3% O2) at 37° C. in standard tissue culture incubator. The TCPS flaks were not coated with MATRIGEL or other extracellular matrix proteins. The media was changed daily. In some cultures, the media was further supplemented with 10-50 ng/ml of IGF-I (insulin growth factor-I from R&D Systems, MN) or 1×ITS (Insulin, transferrin, and selenium from Invitrogen, Ca). In some of the culture conditions the basal media (DM-F12+2% FBS) was further supplemented with 0.1 mM mercaptoethanol (Invitrogen, CA) and non-essential amino acids (1×, NEAA from Invitrogen, CA). […]

EXPRES 03 cells = test: Proliferation and cell cycle analysis (BRDU incorporation, 7AAD); type: cell-based, human
Protocol: Methods: Cells were seeded at 5,000-10,000 cells/cm^2 in Cell Bind tissue culture flasks (Corning) and cultured for 2-4 days. EXPRES 03 cells were cultured either in growth medium containing 2% FBS in DMEM/F12 and Activin-A (100 ng/ml), wnt3a (10-20 ng/ml) and IGF (50 ng/ml). For comparative proliferation analysis, IGF was sometimes omitted from the growth factor cocktail. Cell proliferation was analyzed using the APC BRDU Flow kit according to the Manufacturer's recommendations (BD Biosciences, San Diego, Calif.). Briefly, cells were pulsed with BRDU for 1-2 hrs at the end of culture period, released using Tryple E Express and counted. Cells were fixed in BD Cytofix/Cytosperm Buffer, incubated for 30 min, followed by incubation with BD Cytoperm buffer for 10 minutes on ice. Cells were then treated with DNAse for 1 hr at 37° C. to expose incorporated BRDU, followed by staining with APC conjugated anti-BRDU antibody. For cell cycle analysis, cells were stained with 7AAD, and analyzed on FACS Array.

[3] = tested on: expanded cells derived from human embryonic stem cell line H9; test: Real-time PCR of DE and visceral endoderm markers in expanded cells; type: cell-based
Protocol: Real-time PCR amplification and quantitative analysis: Unless otherwise stated, all reagents were purchased from Applied Biosystems. Real-time PCR reactions were performed using the ABI PRISM® 7900 Sequence Detection System. TAQMAN® UNIVERSAL PCR MASTER MIX® (ABI, CA) was used with 20 ng of reverse transcribed RNA in a total reaction volume of 20 μl. Each cDNA sample was run in duplicate to correct for pipetting errors. Primers and FAM-labeled TAQMAN® probes were used at concentrations of 200 nM. The level of expression for each target gene was normalized using a human glyceraldehyde-3-phosphate dehydrogenase (GAPDH) endogenous control previously developed by Applied Biosystems. SOX-17 primers were designed using the PRIMERS program (ABI, CA) and were the following sequences: SOX-17: TGGCGCAGCAGATACCA, AGCGCCTTCCACGACTTG, and […]. After an initial incubation at 50° C. for 2 min followed by 95° C. for 10 min, samples were cycled 40 times in two stages—a denaturation step at 95° C. for 15 sec followed by an annealing/extension step at 60° C. for 1 min. Data analysis was carried out using GENEAMP®7000 Sequence Detection System software. For each primer/probe set, a Ct value was determined as the cycle number at which the fluorescence intensity reached a specific value in the middle of the exponential region of amplification. Relative gene expression levels were calculated using the comparative Ct method. Briefly, for each cDNA sample, the endogenous control Ct value was subtracted from the gene of interest Ct to give the delta Ct value (ΔCt). The normalized amount of target was calculated as 2-ΔCt, assuming amplification to be 100% efficiency. Final data were expressed relative to a calibrator sample.
Cultures derived from the parental human embryonic stem cell line H9 according to the methods described in Example 6 were passaged every 4-7 days. FIG. 5 depicts real-time PCR results for the expanded cells cultured in 2% FBS+DMEM-F12+100 ng/ml of activin-A+20 of WNT3A for three passages. […] There is a clear decrease in DE markers, such as SOX-17 and HNF-3 beta following each passage. […]

[4] = addition of 50 ng/ml IGF-I and withdrawal of Activin-A and WNT-3A

Molecule: O=C1Nc2cc(Br)ccc2/C1=C1/Nc2ccccc2/C1=N\O [GSK-3B inhibitor IX]
- CXCR4 positive cells (EXPRES 01 cells): approximately 57%
- CXCR4 positive cells (EXPRES 02 cells): approximately 86%

Molecule: C[C@@H](N)[C@H]1CC[C@H](C(=O)Nc2ccncc2)CC1 [Y-27632]
- number of attached cells [1]: significantly larger number of attached cells

Molecule: CO[C@@]12[C@H](COC(N)=O)C3=C(C(=O)C(C)=C(N)C3=O)N1C[C@@H]1N[C@@H]12 [mitomycin, mitomycin C]
- cells in G2/M phase [2]: 64%

Molecule: IGF-I: insulin growth factor-I from R&D Systems; recombinant human IGF-1
- population doubling time (EXPRES cells): approximately 55 hrs
- frequency of cells in S-phase, presence versus absence of IGF (EXPRES 03 cells; BRDU exposure for 1 hour or more): only marginal differences
- number of cells grown in presence of IGF relative to absence of IGF (EXPRES 03 cells; IGF 50 ng/ml, after 3-4 days): 2-3 times
- expression of DE markers along with OCT-4 [3, 4]: precipitous drop
- expression of visceral endoderm markers, such as SOX-7 and AFP [3, 4]: increase

Molecule: WNT3A
- expression of DE markers ([3]; WNT3A added to growth media containing activin-A): significant boost
